Laboratory results reported in publication PMC4414724 (Chemico-biological interactions, 2015).
Like-named read-outs stand apart in the source and are kept apart here.

Tests used:
[1] = molecular target: rat liver alcohol dehydrogenase (Rattus norvegicus, UniProt P06757); experiment: Oxidation of alcohols by isolated rat liver alcohol dehydrogenase
[2] = molecular target: horse liver ADH1E (Equus caballus, UniProt P00327); experiment: Reactions of horse liver ADH1E with 1,5-pentanediol and 5-hydroxypentanal; type: biochemical; details: for concentration formed in dismutation reaction: 5 mM 5-hydroxypentanal, 1 mM NAD+, 0.01 mg/mL ADH, at 12 h, GC
[3] = molecular target: rat liver ADH; details: read-out: in vitro Ki (competitive against alcohol); cited from earlier work
[4] = tested on: ethanol elimination; details: cited from earlier work
[5] = tested on: cytochrome P-450; details: read-out: in vitro Ki; cited from earlier work
[6] = molecular target: ADH3 (UniProt P12711); details: cited from earlier work
[7] = tested on: microsomal ethanol oxidizing system (NADPH-dependent cytochrome P-450 enzymes); details: cited from earlier work
[8] = humans; cited from earlier work
[9] = cited from earlier work
[10] = tested on: rat liver ADH1; details: cited from earlier work
[11] = tested on: methanol metabolism; details: cited from earlier work
[12] = from inhibition by 1 mmole/kg 4-methylpyrazole
[13] = 83 mM potassium phosphate, 40 mM KCl, pH 7.3, 37 °C, 0.5 mM NAD+
[14] = calculated from kinetic constants with Michaelis-Menten equation for 5 mM alcohol
[15] = rats fasted 24 h, dose mmole/kg: 2-propanol 17, 2-propanol-d7 15
[16] = secondary alcohols, doses of 5–10 mmole/kg
[17] = primary alcohols and diols, doses of 5–20 mmole/kg
[18] = data for zero order elimination, rats without inhibitors
[19] = observed rate without inhibitors minus the rate with 1 mmole/kg 4-methylpyrazole
[20] = uninhibited rate at higher 4-methylpyrazole and isobutyramide

Sequence of rat liver alcohol dehydrogenase (P06757 2-376 limits assumed): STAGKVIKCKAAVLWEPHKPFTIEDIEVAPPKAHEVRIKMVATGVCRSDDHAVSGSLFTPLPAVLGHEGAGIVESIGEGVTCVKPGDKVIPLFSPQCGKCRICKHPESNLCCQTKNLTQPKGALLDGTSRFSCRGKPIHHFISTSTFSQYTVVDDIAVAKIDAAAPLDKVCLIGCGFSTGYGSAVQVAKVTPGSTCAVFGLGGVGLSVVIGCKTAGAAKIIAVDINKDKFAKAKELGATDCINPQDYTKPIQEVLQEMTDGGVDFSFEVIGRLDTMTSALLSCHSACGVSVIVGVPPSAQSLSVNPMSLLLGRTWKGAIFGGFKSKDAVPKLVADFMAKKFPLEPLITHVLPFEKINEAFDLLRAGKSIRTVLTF
Sequence of horse liver ADH1E (P00327 2-375 limits assumed): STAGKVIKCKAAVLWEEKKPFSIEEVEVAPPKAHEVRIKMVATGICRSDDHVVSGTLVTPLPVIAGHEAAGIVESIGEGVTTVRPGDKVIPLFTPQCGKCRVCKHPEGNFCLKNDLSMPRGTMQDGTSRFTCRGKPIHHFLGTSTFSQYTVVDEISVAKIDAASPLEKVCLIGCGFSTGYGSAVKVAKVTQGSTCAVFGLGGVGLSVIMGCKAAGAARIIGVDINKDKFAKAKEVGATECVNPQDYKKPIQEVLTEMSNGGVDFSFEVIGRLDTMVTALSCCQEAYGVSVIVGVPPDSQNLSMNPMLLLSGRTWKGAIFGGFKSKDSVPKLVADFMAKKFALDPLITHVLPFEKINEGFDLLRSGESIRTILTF

CC(C)CO [2-Methyl-1-propanol, 2-methyl-1-propanol]
%ADH (estimated percentage of elimination due to ADH) [12]: 66% | in vivo rate of elimination (rat, in vivo): 3.8 ± 0.5 mmol/kg/h | Km [1, 13]: 0.19 ± 0.04 mM | V rel (Vmax relative to ethanol as substrate) [1, 13]: 0.80 ± 0.04 | in vitro v rel [1, 14]: 0.77 | Vrel/K ([1]; pH 7.3, 37 °C, 0.5 mM NAD+): 4.2

CC(C)O [2-Propanol-d7, 2-propanol-d7]
Km ([1]; 83 mM potassium phosphate, 40 mM KCl, pH 7.3, 37 °C, 0.5 mM NAD+, listed as 2-propanol-d7): 83 ± 15 mM

[2H]C([2H])([2H])C([2H])(O)C([2H])([2H])[2H] [2-Propanol-d7, 2-propanol-d7]
10^4 k1 (first order, alcohol to ketone) (rat, in vivo): 18 ± 2 min^−1 | 10^4 k2 (first order, elimination of ketone) (rat, in vivo): 13 ± 2 min^−1 | k2 (zero order, elimination of ketone) (rat, in vivo): 0.44 ± 0.06 mmol/kg/h | 10^4 k1 (first order, alcohol to ketone) (rat, in vivo, ip): 25 ± 2 min^−1 | 10^4 k2 (first order, elimination of ketone) (rat, in vivo, ip): 19 ± 4 min^−1 | k2 (zero order, elimination of ketone) (rat, in vivo, ip): 0.59 ± 0.08 mmol/kg/h | r [15]: 0.70 ± 0.03 mL/g | kinetics of elimination in rats (order) [16]: first order kinetics | V rel (Vmax relative to ethanol as substrate) [1, 13]: 0.20 ± 0.02 | in vitro v rel [1, 14]: 0.011 | Vrel/K ([1]; pH 7.3, 37 °C, 0.5 mM NAD+): 0.0024

OCCCCCO [1,5-Pentanediol, 1,5-pentanediol]
Vmax relative to the activity on ethanol [2]: 1.1 | concentration formed in dismutation reaction [2]: ~ 2 mM | kinetics of elimination in rats (order) [17]: zero-order kinetics | V rel (Vmax relative to ethanol as substrate) [1, 13]: 3.6 ± 1.3 | Vrel/K ([1]; pH 7.3, 37 °C, 0.5 mM NAD+): 1.0

OCc1ccccc1 [Benzyl alcohol, benzyl alcohol]
Ki [1]: 27 mM | V rel (Vmax relative to ethanol as substrate) [1, 13]: 0.47 ± 0.03 | Vrel/K ([1]; pH 7.3, 37 °C, 0.5 mM NAD+): 13

CC(O)CCO (stereo not drawn) [1,3-Butanediol, 1,3-butanediol]
in vivo rate of elimination [18]: 5.0 ± 0.3 mmol/kg/h | Rate due to ADH (male, rat, in vivo): 4.1 | r (fraction of body weight accessible to the alcohol) (male, rat, in vivo, ip): 0.82 ± 0.05 mL/g | %ADH (estimated percentage of elimination due to ADH) (rat, in vivo): 82% | in vitro v rel [1, 14]: 0.44

Cc1cn[nH]c1 [4-methylpyrazole]
Ki [3]: 0.00011 mM | effective, in vivo, competitive Ki ([4]; in the rat): 1.4 µmol/kg | inhibition of elimination of ethanol ([4]; inhibitor dose 1 mmole/kg, ethanol 20 mmole/kg): 87% | Ki [5]: 5.7 mM

OCCCO [1,3-Propanediol, 1,3-propanediol]
in vivo rate of elimination [18]: 2.7 ± 0.8 mmol/kg/h | %ADH (estimated percentage of elimination due to ADH) [12]: 63% | Rate due to ADH [19]: 1.7 | kinetics of elimination in rats (order) [17]: zero-order kinetics | Km [1, 13]: 24 ± 2 mM | V rel (Vmax relative to ethanol as substrate) [1, 13]: 0.75 ± 0.04 | in vitro v rel [1, 14]: 0.13 | Vrel/K ([1]; pH 7.3, 37 °C, 0.5 mM NAD+): 0.031

CCO [Ethanol, ethanol]
%ADH (estimated percentage of elimination due to ADH) [12]: 89% | in vivo rate of elimination (rat, in vivo): 7.9 ± 1.0 mmol/kg/h | activity of ADH3 [6]: no detectable activity | Km [7]: 9.6 mM | possible contribution to the rate of ethanol metabolism [7]: 20–25% | rate of elimination [8]: about 2.2 mmol/kg•h | rate of elimination ([9]; fed rats): about 8 mmol/kg•h | Km of inhibitor-insensitive elimination [9, 20]: 21 mmol/kg | Vmax of inhibitor-insensitive elimination [9, 20]: 2.1 mmol/kg/h | Km [1, 13]: 0.64 ± 0.22 mM | V rel (Vmax relative to ethanol as substrate) [1, 13]: (1.0) | in vitro v rel [1, 14]: 0.88 | Vrel/K ([1]; pH 7.3, 37 °C, 0.5 mM NAD+): 1.6

CO [Methanol]
Rate (zero-order elimination) (fed rat, MP+AT, methanol 10 mmole/kg i.p.): 0.41 mmol/kg/h | time required to eliminate the dose (rat, in vivo): 15 h | Rate (zero-order elimination) (rat, in vivo, ip): 0.56 ± 0.01 mmol/kg/h | Vmax relative to ethanol [10]: 0.10 | Km [7]: 22 mM

CC(C)O [2-Propanol, 2-propanol]
inhibition of the rate of elimination (by 1 mmole/kg of 4-methylpyrazole): 55% | k2 (zero order, elimination of ketone) (fed rats, 10 mmole/kg isobutyramide (IBA), dose 10 mmole/kg): 0.44 mmol/kg/h | %ADH (estimated percentage of elimination due to ADH) [12]: 55% | 10^4 k1 (first order, alcohol to ketone) (rat, in vivo): 42 ± 4 min^−1 | 10^4 k2 (first order, elimination of ketone) (rat, in vivo): 14.3 ± 0.6 min^−1 | Km (rat, in vivo): 58 ± 20 mM | Vmax, Michaelis-Menten fit of elimination in vivo (rat, in vivo): 0.38 ± 0.10 mM/min | r (rat, in vivo): 0.75 ± 0.01 mL/g | k2 (zero order, elimination of ketone) [15]: 0.64 ± 0.02 mmol/kg/h | V rel (Vmax relative to ethanol as substrate) [1, 13]: 0.40 ± 0.02 | Km ([1]; 83 mM potassium phosphate, 40 mM KCl, pH 7.3, 37 °C, 0.5 mM NAD+, listed as 2-propanol): 36 ± 7 mM | in vitro v rel [1, 14]: 0.049 | Vrel/K ([1]; pH 7.3, 37 °C, 0.5 mM NAD+): 0.011

CCCO [1-Propanol, 1-propanol]
%ADH (estimated percentage of elimination due to ADH) [12]: 81% | Rate due to ADH (rat, in vivo): 4.3 | in vivo rate of elimination (rat, in vivo): 5.3 ± 0.5 mmol/kg/h | kinetics of elimination in rats (order) (rat, in vivo): zero-order kinetics | r (fraction of body weight accessible to the alcohol) (rat, in vivo, ip): 0.67 ± 0.09 mL/g | Km [1, 13]: 0.22 ± 0.03 mM | V rel (Vmax relative to ethanol as substrate) [1, 13]: 0.95 ± 0.07 | in vitro v rel [1, 14]: 0.91 | Vrel/K ([1]; pH 7.3, 37 °C, 0.5 mM NAD+): 4.3

CCC(C)=O [2-Butanone]
10^4 k2 (first order, elimination of ketone) (rat, in vivo, ip): 31 ± 2 min^−1 | k2 (zero order, elimination of ketone) (rat, in vivo, ip): 1.3 mmol/kg/h | r (rat, in vivo, ip): 0.81 mL/g

CCC(C)O (stereo not drawn) [2-Butanol, 2-butanol]
%ADH (estimated percentage of elimination due to ADH) [12]: 68% | Rate due to ADH (rat, in vivo): 1.7 | in vivo rate of elimination (rat, in vivo): 2.5 ± 0.4 mmol/kg/h | kinetics of elimination in rats (order) (rat, in vivo): first order kinetics | 10^4 k1 (first order, alcohol to ketone) (rat, in vivo, ip): 112 ± 17 min^−1 | 10^4 k2 (first order, elimination of ketone) (rat, in vivo, ip): 37 ± 4 min^−1 | k2 (zero order, elimination of ketone) (rat, in vivo, ip): 1.1 ± 0.2 mmol/kg/h | r (rat, in vivo, ip): 0.74 ± 0.08 mL/g | Km [1, 13]: 12 ± 6 mM | V rel (Vmax relative to ethanol as substrate) [1, 13]: 0.48 ± 0.03 | in vitro v rel [1, 14]: 0.14 | Vrel/K ([1]; pH 7.3, 37 °C, 0.5 mM NAD+): 0.04

CC(C)C(N)=O [isobutyramide]
in vivo Ki (uncompetitive) [4]: 1 mmol/kg

OC1CCCCC1 [Cyclohexanol, cyclohexanol]
%ADH (estimated percentage of elimination due to ADH) [12]: 74% | Rate due to ADH (male, rat, in vivo): 3.2 | in vivo rate of elimination (male, rat, in vivo): 4.3 ± 1.5 mmol/kg/h | 10^4 k1 (first order, alcohol to ketone) (male, rat, in vivo, ip): 229 ± 70 min^−1 | 10^4 k2 (first order, elimination of ketone) (male, rat, in vivo, ip): 50 ± 6 min^−1 | r (male, rat, in vivo, ip): 0.75 ± 0.21 mL/g | in vitro v rel [1, 14]: 0.90

CC(C)CCO [3-Methyl-1-butanol, 3-methyl-1-butanol]
%ADH (estimated percentage of elimination due to ADH) [12]: 61% | in vivo rate of elimination (male, Sprague-Dawley, rat, in vivo): 4.6 ± 0.8 mmol/kg/h | V rel (Vmax relative to ethanol as substrate) [1, 13]: 0.54 ± 0.02 | in vitro v rel [1, 14]: 0.53 | Vrel/K ([1]; pH 7.3): 13

OCCCCO [1,4-Butanediol, 1,4-butanediol]
Rate due to ADH (male, rat, in vivo): 5.8 | in vivo rate of elimination (male, rat, in vivo): 6.7 ± 0.1 mmol/kg/h | r (fraction of body weight accessible to the alcohol) (male, rat, in vivo, ip): 1.3 ± 0.2 mL/g | %ADH (estimated percentage of elimination due to ADH) (rat, in vivo): 86% | kinetics of elimination in rats (order) (rat, in vivo): zero-order kinetics | in vitro v rel [1]: 0.52 | V rel (Vmax relative to ethanol as substrate) ([1]; pH 7.3): 1.5 ± 0.3 | Vrel/K ([1]; pH 7.3): 0.16

O=C1CCCCO1 [δ-valerolactone]
concentration formed in dismutation reaction [2]: ~ 2 mM

OC1CCCC1 [Cyclopentanol, cyclopentanol]
%ADH (estimated percentage of elimination due to ADH) [12]: 64% | Rate due to ADH [19]: 3.0 | kinetics of elimination in rats (order) [16]: first order kinetics | V rel (Vmax relative to ethanol as substrate) [1, 13]: 0.72 ± 0.04 | in vitro v rel [1, 14]: 0.68 | Vrel/K ([1]; pH 7.3, 37 °C, 0.5 mM NAD+): 2.2

Nc1nc[nH]n1 [3-Aminotriazole, 3-Amino-1,2,4-triazole]
inhibition of ethanol metabolism in rats [4]: ~ 10% | inhibition of methanol metabolism [11]: ~ 35%

O=C1CCCCC1 [Cyclohexanone]
10^4 k1 (first order, alcohol to ketone) (male, rat, in vivo, ip): 176 ± 13 min^−1 | 10^4 k2 (first order, elimination of ketone) (male, rat, in vivo, ip): 67 ± 3 min^−1 | r (male, rat, in vivo, ip): 0.53 mL/g

c1cn[nH]c1 [pyrazole, reference compound]
Inhibition of the ADH reactions ([1]; 10 mM pyrazole): almost totally inhibited

CCC(O)CC [3-Pentanol, 3-pentanol]
%ADH (estimated percentage of elimination due to ADH) [12]: 90% | Rate due to ADH [19]: 3.6 | kinetics of elimination in rats (order) [16]: first order kinetics | V rel (Vmax relative to ethanol as substrate) [1, 13]: 0.69 ± 0.03 | in vitro v rel [1, 14]: 0.35 | Vrel/K ([1]; pH 7.3, 37 °C, 0.5 mM NAD+): 0.14

OCCO [1,2-Ethanediol, 1,2-ethanediol]
r (fraction of body weight accessible to the alcohol) (rat, in vivo, ip): 0.72 ± 0.08 mL/g | V rel (Vmax relative to ethanol as substrate) ([1]; pH 7.3): 0.99 ± 0.25 | Vrel/K ([1]; pH 7.3): 0.0013

CCCCO [1-Butanol, 1-butanol]
%ADH (estimated percentage of elimination due to ADH) [12]: 56% | in vivo rate of elimination (rat, in vivo): 3.2 ± 0.4 mmol/kg/h | Km [1, 13]: 0.14 ± 0.03 mM | V rel (Vmax relative to ethanol as substrate) [1, 13]: 1.3 ± 0.1 | in vitro v rel [1, 14]: 1.3 | Vrel/K ([1]; pH 7.3, 37 °C, 0.5 mM NAD+): 9.3
